In series [1] the test system is BV-2. Description: Anti-inflammatory activity in […] cells assessed as inhibition of LPS-induced NO production at 50 uM pretreated with compound for 1 hr followed by coincubation with LPS for 24 hrs by Griess reagent based analysis. The format is functional, cell-based. The conditions noted are these: Mus musculus, time 25.0 hrs. A general note: The Griess reaction detects nitrite, a stable product of nitric oxide.

The subject of series [2] is BV-2. Description: Anti-inflammartory activity against LPS-activated […] cells assessed as reduction in IL-6 levels at 50 uM pretreated with compound for 1 hr followed by co-incubation with LPS for 24 hrs by ELISA. In kind it is functional, cell-based. The settings on record: Mus musculus, time 25.0 hrs. A general note: In an ELISA, binding on a coated surface is turned into a signal by an enzyme label.

Series [3] deals with BV-2. The series can be described thus: Anti-inflammartory activity against LPS-activated […] cells assessed as reduction in TNF-alpha levels at 50 uM pretreated with compound for 1 hr followed by co-incubation with LPS for 24 hrs by ELISA. The settings on record: Mus musculus, time 25.0 hrs. The format is functional, cell-based.
The test system of series [4] is RAW264.7. Description: Anti-inflammartory activity in mouse RAW264.7 cells assessed as inhibition of LPS-induced NO production at 50 uM pretreated with compound for 1 hr followed by incubation with LPS for 12 hrs by Griess reagent based analysis. The settings on record: time 13.0 hrs. In kind it is functional, cell-based.
Series [5] relates to RAW264.7. Description: Anti-inflammartory activity against LPS-activated mouse RAW264.7 cells assessed as reduction in IL-6 levels at 50 uM pretreated with compound for 1 hr followed by incubation with LPS for 12 hrs by ELISA. The settings on record: time 13.0 hrs. The format is functional, cell-based.
Series [6] concerns RAW264.7. The series can be described thus: Anti-inflammartory activity against LPS-activated mouse RAW264.7 cells assessed as reduction in TNF-alpha levels at 50 uM pretreated with compound for 1 hr followed by incubation with LPS for 12 hrs by ELISA. In kind it is functional, cell-based. The conditions noted are these: time 13.0 hrs.
A short description of series [7]: CNS toxicity in naive ICR mouse assessed as motor coordination at 5 mg/kg, ip measured after 240 mins by rotarod test. The format is organism-based. The settings on record: in vivo, 4 h.
Series [8] can be described thus: CNS toxicity in naive ICR mouse assessed as reduction in spontaneous locomotor activity at 5 mg/kg, ip and measured for 30 mins by LABORAS automated behavioral analysis. The format is organism-based. The settings on record: in vivo, 0.5 h.
Series [9] in a line: CNS toxicity in naive ICR mouse assessed as reduction in spontaneous locomotor activity by measuring reduction in animal's movement speed in arena at 5 mg/kg, ip and measured for 30 mins by LABORAS automated behavioral analysis. The settings on record: in vivo, 0.5 h. In kind it is organism-based.
The nature of series [10]: CNS toxicity in naive ICR mouse assessed as reduction in spontaneous locomotor activity at 5 mg/kg, ip and measured for 2 hrs by LABORAS automated behavioral analysis. The format is organism-based. The settings on record: in vivo.
Series [11] can be described thus: CNS toxicity in naive ICR mouse assessed as reduction in spontaneous locomotor activity by measuring reduction in climbing behaviour at 5 mg/kg, ip and measured for 30 mins by LABORAS automated behavioral analysis. The format is organism-based. The settings on record: in vivo, 0.5 h.
A short description of series [12]: CNS toxicity in naive ICR mouse assessed as reduction in spontaneous locomotor activity by measuring reduction in climbing behaviour at 5 mg/kg, ip and measured for 2 hrs by LABORAS automated behavioral analysis. In kind it is organism-based. The settings on record: in vivo.
Series [13] is described as follows: CNS toxicity in naive ICR mouse assessed as reduction in spontaneous locomotor activity by measuring reduction in rearing behaviour at 5 mg/kg, ip and measured for 2 hrs by LABORAS automated behavioral analysis. The format is organism-based. The settings on record: in vivo.
Series [14] is described as follows: CNS toxicity in naive ICR mouse assessed as reduction in spontaneous locomotor activity by measuring increase in immobility behaviour at 5 mg/kg, ip and measured for 2 hrs by LABORAS automated behavioral analysis. The format is organism-based. The conditions noted are these: in vivo.
Series [15] in a line: CNS toxicity in naive ICR mouse assessed as reduction in spontaneous locomotor activity by measuring increase in immobility behaviour at 5 mg/kg, ip and measured for 30 mins by LABORAS automated behavioral analysis. In kind it is organism-based. The conditions noted are these: in vivo, 0.5 h.
Series [16] in a line: CNS toxicity in naive ICR mouse assessed as reduction in rotarod latency time at 5 mg/kg, ip measured at <240 mins by rotarod test. In kind it is organism-based. The settings on record: in vivo, 4 h.
Series [17] in a line: CNS toxicity in naive ICR mouse assessed as reduction in spontaneous locomotor activity by measuring reduction in rearing behaviour at 5 mg/kg, ip and measured for 30 mins by LABORAS automated behavioral analysis. The format is organism-based. The conditions noted are these: in vivo, 0.5 h.
Series [18] is described as follows: CNS toxicity in naive ICR mouse assessed as reduction in spontaneous locomotor activity by measuring reduction in distance travelled in arena at 5 mg/kg, ip and measured for 30 mins by LABORAS automated behavioral analysis. In kind it is organism-based. The conditions noted are these: in vivo, 0.5 h.
Series [19] can be described thus: CNS toxicity in naive ICR mouse assessed as reduction in spontaneous locomotor activity by measuring reduction in distance travelled in arena at 5 mg/kg, ip and measured for 2 hrs by LABORAS automated behavioral analysis. The settings on record: in vivo. In kind it is organism-based.
The nature of series [20]: CNS toxicity in naive ICR mouse assessed as reduction in spontaneous locomotor activity by measuring reduction in animal's movement speed in arena at 5 mg/kg, ip and measured for 2 hrs by LABORAS automated behavioral analysis. In kind it is organism-based. The settings on record: in vivo.
Series [21] has as its system Mus musculus. Description: Anti-inflammatory activity against LPS-induced inflammatory pain-like behaviour ICR mouse model assessed as improvement in locomotor activity by measuring decrease in immobility behaviour at 10 mg/kg, ip treated with LPS for 2 hrs followed by drug administration for 1 hr and measured for 5 mins by LABORAS analysis. In kind it is functional, organism-based. The conditions noted are these: time 65.0 min.

For series [22], the system named is Mus musculus. Description: Anti-inflammatory activity against LPS-induced inflammatory pain-like behaviour ICR mouse model assessed as improvement in locomotor activity by measuring increase in distance travelled in LABORAS arena at 10 mg/kg, ip treated with LPS for 2 hrs followed by drug administration for 1 hr and measured for 5 mins by LABORAS analysis. In kind it is functional, organism-based. The conditions noted are these: time 65.0 min.

The subject of series [23] is Mus musculus. The series can be described thus: Anti-inflammatory activity against LPS-induced inflammatory pain-like behaviour ICR mouse model assessed as improvement in locomotor activity by measuring increased mobile behaviours at 10 mg/kg, ip treated with LPS for 2 hrs followed by drug administration for 1 hr and measured for 5 mins by LABORAS analysis. The format is functional, organism-based. The settings on record: time 65.0 min.

Series [24] has as its system Mus musculus. Description: Anti-inflammatory activity against LPS-induced inflammatory pain-like behaviour ICR mouse model assessed as improvement in locomotor activity by measuring increase in animal's movement speed in LABORAS arena at 10 mg/kg, ip treated with LPS for 2 hrs followed by drug administration for 1 hr and measured for 5 mins by LABORAS analysis. In kind it is functional, organism-based. The settings on record: time 65.0 min.

The test system of series [25] is Mus musculus. Description: Anti-inflammatory activity against LPS-induced inflammatory pain-like behaviour ICR mouse model assessed as reduction in TNF-alpha levels in plasma at 10 mg/kg, ip treated with LPS for 2 hrs followed by drug administration for 1 hr by ELISA. The format is functional, organism-based.
The subject of series [26] is Mus musculus. The series can be described thus: Anti-inflammatory activity against LPS-induced inflammatory pain-like behaviour ICR mouse model assessed as reduction in IL-6 levels in plasma at 10 mg/kg, ip treated with LPS for 2 hrs followed by drug administration for 1 hr by ELISA. The format is functional, organism-based.
The test system of series [27] is Mus musculus. The series can be described thus: Analgesic activity against formalin-induced inflammatory pain-like behaviour ICR mouse model assessed as inhibition of hind paw licking behaviour at 10 mg/kg, ip administered 60 mins prior to formalin challenge and measured after 10 to 40 mins by formalin test. The format is functional. The conditions noted are these: time 70-100 min.

The structures appear in SMILES notation. The source made the active and inactive calls. The rule behind the calls is not given here.

As to `CN(C)c1ccc(O)c2c1C[C@H]1C[C@H]3[C@H](N(C)C)C(O)=C(C(N)=O)C(=O)[C@@]3(O)C(O)=C1C2=O`, the result in [1], in series [2] and in series [3] was Active.

For the molecule `C[C@@H]1C[C@H]2[C@@H]3CCC4=CC(=O)C=C[C@]4(C)[C@@]3(F)[C@@H](O)C[C@]2(C)[C@@]1(O)C(=O)CO`, the outcome in [4], in series [5] and in [6] was Active.

Take `CN(C)CCCN1c2ccccc2Sc2ccc(Cl)cc21` [CHLORPROMAZINE]: the Activity entry in [7] is “Non-Toxic”; in [8], “Toxic”; in [9], “Toxic”; in [10] it was “Toxic”; in [11] it was “Toxic”; in series [12], “Toxic”. The Activity result in series [13], in series [14], in series [15], in [16], in [17] and in series [18] was “Toxic” each time. Also, the Activity result in series [19] and in [20] was “Toxic” each time.

The inhibition in vivo is the share of the control response that was lost under treatment. `COc1ccc2c(c1)c(CC(=O)O)c(C)n2C(=O)c1ccc(Cl)cc1` [INDOMETHACIN]: the outcome in series [21], in series [22], in series [23], in series [24], in series [25] and in series [26] was Active. Also, in [27], the inhibition in vivo at 10 mg/kg worked out at 71.6%.

These data come from ChEMBL document CHEMBL5120901, “Batatasin III, a Constituent of Dendrobium scabrilingue, Improves Murine Pain-like Behaviors with a Favorable CNS Safety Profile” (J Nat Prod, 2022).
